Assay results from ChEMBL document CHEMBL1909046, “DrugMatrix in vitro pharmacology data”.

Assays:
[1] = biological target: 5-hydroxytryptamine receptor 6 (Homo sapiens, UniProt P50406); format: cell membranes, HeLa, Membrane; conditions: for Ki: read-out: Ki
[2] = biological target: T1, B2 bradykinin receptor (Homo sapiens, UniProt P30411); format: cell membranes, Membrane; conditions: chem-1
T1 sequence (P30411 whole entry): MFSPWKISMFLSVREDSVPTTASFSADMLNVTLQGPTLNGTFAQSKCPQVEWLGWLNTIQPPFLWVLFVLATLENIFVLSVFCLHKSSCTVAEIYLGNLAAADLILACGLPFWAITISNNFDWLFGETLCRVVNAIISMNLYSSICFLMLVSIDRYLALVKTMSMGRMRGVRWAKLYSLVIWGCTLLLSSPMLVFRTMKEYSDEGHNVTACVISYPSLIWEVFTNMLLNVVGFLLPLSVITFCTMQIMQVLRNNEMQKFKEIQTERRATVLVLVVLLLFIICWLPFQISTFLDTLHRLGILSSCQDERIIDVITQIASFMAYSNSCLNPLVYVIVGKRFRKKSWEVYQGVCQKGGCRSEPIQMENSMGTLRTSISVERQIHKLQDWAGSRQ

[3] = biological target: Cytochrome P450 2C9 (Homo sapiens, UniProt P11712); conditions: bti-tn-5b1-4
Cytochrome P450 2C9, sequence (P11712 whole entry): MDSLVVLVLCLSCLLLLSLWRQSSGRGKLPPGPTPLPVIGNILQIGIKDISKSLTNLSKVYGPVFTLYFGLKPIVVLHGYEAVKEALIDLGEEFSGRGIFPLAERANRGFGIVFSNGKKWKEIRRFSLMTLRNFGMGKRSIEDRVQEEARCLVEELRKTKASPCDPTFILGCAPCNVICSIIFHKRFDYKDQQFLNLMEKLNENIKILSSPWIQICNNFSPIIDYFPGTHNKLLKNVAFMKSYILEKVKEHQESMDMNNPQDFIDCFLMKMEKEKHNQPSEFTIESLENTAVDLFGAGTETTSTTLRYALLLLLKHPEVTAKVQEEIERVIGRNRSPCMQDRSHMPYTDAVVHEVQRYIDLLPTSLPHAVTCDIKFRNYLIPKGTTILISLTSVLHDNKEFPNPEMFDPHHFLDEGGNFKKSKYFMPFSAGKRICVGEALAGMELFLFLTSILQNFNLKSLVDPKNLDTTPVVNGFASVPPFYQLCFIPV

[4] = biological target: T2, Receptor-type tyrosine-protein phosphatase C (Homo sapiens, UniProt P08575); parameters: species or system Escherichia coli;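 note: inhibition of CD45 enzyme activity measured using DiFMUP as substrate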
T2 sequence (P08575 whole entry): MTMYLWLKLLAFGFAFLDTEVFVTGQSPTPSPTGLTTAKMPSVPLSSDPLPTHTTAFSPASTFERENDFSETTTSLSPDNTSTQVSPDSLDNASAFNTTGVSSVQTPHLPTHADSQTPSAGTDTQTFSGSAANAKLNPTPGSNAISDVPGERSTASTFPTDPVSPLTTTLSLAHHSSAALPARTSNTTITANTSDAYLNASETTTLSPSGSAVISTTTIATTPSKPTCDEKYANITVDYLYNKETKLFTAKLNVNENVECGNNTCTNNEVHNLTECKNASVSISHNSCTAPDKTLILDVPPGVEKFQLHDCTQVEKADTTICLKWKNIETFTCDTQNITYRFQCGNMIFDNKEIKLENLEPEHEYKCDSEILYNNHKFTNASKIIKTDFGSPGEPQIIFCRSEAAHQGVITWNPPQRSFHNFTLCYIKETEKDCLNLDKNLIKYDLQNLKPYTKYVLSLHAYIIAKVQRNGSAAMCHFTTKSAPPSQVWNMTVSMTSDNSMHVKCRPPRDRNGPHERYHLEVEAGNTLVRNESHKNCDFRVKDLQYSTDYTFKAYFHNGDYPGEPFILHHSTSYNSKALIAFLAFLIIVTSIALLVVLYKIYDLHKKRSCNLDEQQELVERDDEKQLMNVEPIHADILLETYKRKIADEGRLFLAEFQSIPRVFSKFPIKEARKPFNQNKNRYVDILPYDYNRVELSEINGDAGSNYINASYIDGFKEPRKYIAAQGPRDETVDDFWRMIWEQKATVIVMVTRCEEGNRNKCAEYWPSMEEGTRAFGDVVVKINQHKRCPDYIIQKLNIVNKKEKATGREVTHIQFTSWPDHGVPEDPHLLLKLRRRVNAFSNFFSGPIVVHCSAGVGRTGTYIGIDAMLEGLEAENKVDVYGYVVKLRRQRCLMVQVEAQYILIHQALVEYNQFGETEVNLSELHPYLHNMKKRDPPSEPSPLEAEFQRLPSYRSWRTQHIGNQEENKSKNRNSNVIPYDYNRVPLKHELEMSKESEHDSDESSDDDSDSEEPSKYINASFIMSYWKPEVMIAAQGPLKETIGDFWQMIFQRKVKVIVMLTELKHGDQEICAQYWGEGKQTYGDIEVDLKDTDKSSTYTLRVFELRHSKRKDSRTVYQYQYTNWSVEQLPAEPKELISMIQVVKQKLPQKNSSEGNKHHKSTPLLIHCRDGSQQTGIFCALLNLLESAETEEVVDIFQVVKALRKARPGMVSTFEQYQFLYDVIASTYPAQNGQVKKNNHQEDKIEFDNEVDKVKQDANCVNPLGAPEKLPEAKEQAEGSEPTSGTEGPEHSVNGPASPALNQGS

[5] = biological target: Estrogen receptor beta (Homo sapiens, UniProt Q92731); conditions: sf9
Estrogen receptor beta, sequence (Q92731 whole entry): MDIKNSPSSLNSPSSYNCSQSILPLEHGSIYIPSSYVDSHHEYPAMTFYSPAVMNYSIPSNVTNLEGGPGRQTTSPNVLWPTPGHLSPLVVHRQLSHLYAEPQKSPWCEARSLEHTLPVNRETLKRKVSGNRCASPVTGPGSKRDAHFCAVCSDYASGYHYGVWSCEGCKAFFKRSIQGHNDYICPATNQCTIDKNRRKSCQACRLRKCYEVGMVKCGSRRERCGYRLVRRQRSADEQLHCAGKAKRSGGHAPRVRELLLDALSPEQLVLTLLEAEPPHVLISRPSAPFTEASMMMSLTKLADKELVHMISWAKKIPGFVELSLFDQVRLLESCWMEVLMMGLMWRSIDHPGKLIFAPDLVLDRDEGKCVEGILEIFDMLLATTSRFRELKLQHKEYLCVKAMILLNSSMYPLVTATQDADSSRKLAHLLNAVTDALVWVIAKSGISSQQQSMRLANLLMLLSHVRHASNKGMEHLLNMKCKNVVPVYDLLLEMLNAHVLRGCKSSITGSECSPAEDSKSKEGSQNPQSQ

[6] = biological target: T3, Estrogen receptor (Homo sapiens, UniProt P03372); conditions: sf9
T3 sequence (P03372 whole entry): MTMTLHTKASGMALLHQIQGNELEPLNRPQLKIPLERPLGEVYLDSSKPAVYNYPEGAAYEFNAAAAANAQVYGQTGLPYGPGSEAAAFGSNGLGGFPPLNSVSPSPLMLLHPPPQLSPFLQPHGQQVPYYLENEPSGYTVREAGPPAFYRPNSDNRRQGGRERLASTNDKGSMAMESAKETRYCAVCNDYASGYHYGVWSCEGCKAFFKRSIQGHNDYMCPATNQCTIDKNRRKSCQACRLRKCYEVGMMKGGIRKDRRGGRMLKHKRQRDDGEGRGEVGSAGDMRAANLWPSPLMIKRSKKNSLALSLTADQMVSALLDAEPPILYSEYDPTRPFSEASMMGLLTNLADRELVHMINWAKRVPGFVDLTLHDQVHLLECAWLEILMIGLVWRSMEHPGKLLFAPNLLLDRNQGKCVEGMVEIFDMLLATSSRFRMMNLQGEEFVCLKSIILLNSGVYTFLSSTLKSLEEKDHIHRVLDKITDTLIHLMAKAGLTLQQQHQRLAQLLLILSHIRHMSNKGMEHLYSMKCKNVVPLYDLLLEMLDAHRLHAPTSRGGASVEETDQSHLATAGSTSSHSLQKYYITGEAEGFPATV
Note: in other assays of this panel Not Active means under 50% inhibition at 10 µM.

5-hydroxytryptamine receptor 6, sequence (P50406 whole entry): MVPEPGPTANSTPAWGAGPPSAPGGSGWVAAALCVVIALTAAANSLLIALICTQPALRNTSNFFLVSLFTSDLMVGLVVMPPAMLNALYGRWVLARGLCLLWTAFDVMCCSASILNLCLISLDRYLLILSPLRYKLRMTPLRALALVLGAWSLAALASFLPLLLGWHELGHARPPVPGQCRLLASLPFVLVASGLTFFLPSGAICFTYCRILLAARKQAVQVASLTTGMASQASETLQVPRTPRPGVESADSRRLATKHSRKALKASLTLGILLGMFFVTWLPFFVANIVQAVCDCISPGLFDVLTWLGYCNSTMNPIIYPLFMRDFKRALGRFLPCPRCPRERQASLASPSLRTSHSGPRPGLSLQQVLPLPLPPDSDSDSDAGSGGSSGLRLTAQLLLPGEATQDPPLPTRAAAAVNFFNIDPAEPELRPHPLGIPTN

Row | Structure (SMILES) | IC50 ([1]; hela) | IC50 [2] | IC50 [3] | Ki [3] | IC50 [4] | IC50 [5] | IC50 [6] | IC50 ([1]; read-out: IC50) [µM] | Ki [1] [µM]
1 | NCCCC[C@H](N[C@@H](CCc1ccccc1)C(=O)O)C(=O)N1CCC[C@H]1C(=O)O [LISINOPRIL ANHYDROUS] | Not Active | Not Active | Not Active | Not Active | Not Active |  |  |  | 
2 | CN1[C@@H]2CC[C@H]1C[C@@H](OC(=O)c1c[nH]c3ccccc13)C2 [TROPISETRON] | Not Active | Not Active | Not Active | Not Active | Not Active | Not Active |  |  | 
3 | COc1cccc(C2(O)CCCCC2CN(C)C)c1 (stereo not given) [TRAMADOL] | Not Active | Not Active | Not Active | Not Active | Not Active |  | Not Active |  | 
4 | C[C@](N)(Cc1ccc(O)cc1)C(=O)O [METYROSINE] | Not Active | Not Active | Not Active | Not Active | Not Active |  | Not Active |  | 
5 | Cc1cc(NS(=O)(=O)c2ccc(N)cc2)no1 [SULFAMETHOXAZOLE] | Not Active | Not Active |  |  | Not Active | Not Active |  |  | 
6 | CN(C)CCCN1c2ccccc2CCc2ccc(Cl)cc21 [CLOMIPRAMINE] |  | Not Active | Not Active | Not Active | Not Active |  |  | 0.245 | 0.114
7 | COc1cc(C(=O)NC2CCCNC2)cc(OC)c1OC (stereo not given) [TROXIPIDE] | Not Active | Not Active | Not Active | Not Active | Not Active | Not Active |  |  | 
8 | NNc1ccccc1 [PHENYLHYDRAZINE] | Not Active | Not Active |  |  | Not Active | Not Active |  |  | 
9 | NC(CO)(CO)CO [TROMETHAMINE] | Not Active | Not Active | Not Active | Not Active | Not Active |  | Not Active |  | 
10 | CC[C@H]1OC(=O)[C@H](C)[C@@H](O[C@H]2C[C@@](C)(OC)[C@@H](O)[C@H](C)O2)[C@H](C)[C@@H](O[C@@H]2O[C@H](C)C[C@H](N(C)C)[C@H]2O)[C@](C)(O)C[C@@H](C)/C(=N\OCOCCOC)[C@H](C)[C@@H](O)[C@]1(C)O [ROXITHROMYCIN] | Not Active | Not Active | Not Active | Not Active | Not Active |  | Not Active |  | 
11 | NC(=O)c1ncn([C@@H]2O[C@H](CO)[C@@H](O)[C@H]2O)n1 [RIBAVIRIN] | Not Active | Not Active |  |  | Not Active |  |  |  | 
12 | COc1ccc(C(CN(C)C)C2(O)CCCCC2)cc1 (stereo not given) [VENLAFAXINE] | Not Active | Not Active | Not Active | Not Active | Not Active |  |  |  | 
13 | COS(C)(=O)=O [METHANESULFONIC ACID METHYL ESTER] | Not Active | Not Active | Not Active | Not Active | Not Active |  | Not Active |  | 
14 | C[C@]12Cc3c[nH]nc3C[C@@H]1CC[C@@H]1[C@@H]2CC[C@@]2(C)[C@H]1CC[C@]2(C)O [STANOZOLOL] | Not Active | Not Active |  |  | Not Active |  |  |  | 
15 | CN[C@@H]1[C@@H](O)[C@@H](O[C@@H]2[C@@H](O)[C@H](O[C@H]3OC(CN)=CC[C@H]3N)[C@@H](N)C[C@H]2N)OC[C@]1(C)O [SISOMICIN] | Not Active | Not Active |  |  | Not Active |  |  |  | 
16 | Clc1ccc(C(c2ccccc2Cl)C(Cl)Cl)cc1 (stereo not given) [MITOTANE] |  | Not Active | Not Active | Not Active | Not Active | Not Active |  | 1.4 | 0.651
17 | COc1ccc(CCN2CCC(Nc3nc4ccccc4n3Cc3ccc(F)cc3)CC2)cc1 [ASTEMIZOLE] |  | Not Active | Not Active | Not Active | Not Active |  |  |  | 
18 | CN(C)[C@@H]1C(O)=C(C(N)=O)C(=O)[C@@]2(O)C(O)=C3C(=O)c4c(O)cccc4[C@@](C)(O)[C@H]3C[C@@H]12 [TETRACYCLINE] | Not Active | Not Active |  |  | Not Active | Not Active |  |  | 
19 | O=C1c2c(O)ccc(O)c2C(=O)c2c(NCCNCCO)ccc(NCCNCCO)c21 [MITOXANTRONE] | Not Active | Not Active |  |  | Not Active | Not Active |  |  | 
20 | Nc1nnc(-c2cccc(Cl)c2Cl)c(N)n1 [LAMOTRIGINE] | Not Active | Not Active | Not Active | Not Active | Not Active | Not Active |  |  | 
21 | CC(C)(C)NCC(O)c1cc(O)cc(O)c1 (stereo not given) [TERBUTALINE] | Not Active | Not Active | Not Active | Not Active | Not Active |  |  |  | 
22 | CC(C)(C)NC(=O)[C@@H]1CN(Cc2cccnc2)CCN1C[C@@H](O)C[C@@H](Cc1ccccc1)C(=O)N[C@H]1c2ccccc2C[C@H]1O.O | Not Active | Not Active | Not Active | Not Active | Not Active |  |  |  | 
23 | Nc1ccc(S(N)(=O)=O)cc1 [SULFANILAMIDE] | Not Active | Not Active |  |  | Not Active | Not Active |  |  | 
24 | O=C(CCCN1CCC(O)(c2ccc(Cl)cc2)CC1)c1ccc(F)cc1 [HALOPERIDOL] | Not Active | Not Active | Not Active | Not Active | Not Active | Not Active |  |  | 
